Assay results from ChEMBL document CHEMBL5252556, “Fuligopyrones from the Fruiting Bodies of Myxomycete Fuligo septica Offer Short-Term Protection from Abiotic Stress Induced by UV Radiation” (J Nat Prod, 2023).

Experiments:
[1] = Cytotoxicity against mouse NS-1 cells measured after 72 hrs; assay type: toxicity, cell-based
Eragrostis tef = test: Herbicidal activity against Eragrostis tef seed measured after 24 hrs; details: in Eragrostis tef
[2] = Cytotoxicity against […] NFF measured after 72 hrs; assay type: toxicity, cell-based; details: NFF cells
Tritrichomonas foetus = test: Anti-protozoal Tritrichomonas foetus KV-1 measured after 24 hrs; assay type: functional
Saccharomyces cerevisiae = test: Antifungal activity against Saccharomyces cerevisiae ATCC 9763 measured after 24 hrs; assay type: functional
Bacillus subtilis = test: Antibacterial activity against Bacillus subtilis ATCC 6633 measured after 24 hrs; assay type: functional
Candida albicans = test: Antifungal activity against Candida albicans ATCC 10231 measured after 24 hrs; assay type: functional
Staphylococcus aureus = test: Antibacterial activity against Staphylococcus aureus ATCC 25923 measured after 24 hrs; assay type: functional

Row | SMILES | IC50 at 72 h [1] [µM] | MIC (Eragrostis tef) [µg/mL] | IC50 at 72 h [2] [µM] | LD99 (Tritrichomonas foetus) [µg/mL] | MIC (Saccharomyces cerevisiae) [µg/mL] | MIC (Bacillus subtilis) [µg/mL] | MIC (Candida albicans) [µg/mL] | MIC (Staphylococcus aureus) [µg/mL]
1 | O=C(/C=C/C=C/c1ccc(O)cc1)NCCc1cc(O)c(Cl)c(=O)o1 | > 200 | > 100 | > 200 | >100 | > 200 | > 100 | > 200 | > 100
2 | O=C(/C=C/C=C/c1ccc(O)cc1)NCCc1cc(O)cc(=O)o1 | > 200 | > 100 | > 200 | >100 | > 200 | > 100 | > 200 | > 100
